In patent US20240368113A1, “AMIDE COMPOUND AND USE THEREOF” (Chengdu Fendi Pharmaceutical Co. Ltd., priority 2021, published 2024):

system: MV-4-11 cells; assay: Inhibition of tumor cell proliferation (CellTiter-Glo); type: cell-based; details: Homo sapiens, MV4-11, 72 h, read-out: IC50 of inhibitory activity of tumor cell proliferation
Protocol: MV-4-11 cells were diluted with medium (RPM1640+10% FBS+1% PS) and plated at 4000 cells/well in a white-walled clear-bottom 96-well plate. MV-4-11 cells were plated and incubated in a 5% CO2, 37° C. incubator for 2 hours. Cells were treated with the indicated concentration of compound or DMSO (control), and placed in a 5% CO2, 37° C. incubator for 72 h after dosing. After the end of the culture, equilibrate at room temperature for 30 min, add 100 μl of CellTiter-Glo® Reagent to each well, and shake the microplate shaker for 2 min. After 10 min of incubation at room temperature, the luminescence was measured by a microplate reader, and the cell-free wells were used as the background wells. CC-90009 (celegen patent phase I) was used as a control, and its structural formula was as follows: 0

SMILES | IC50 [nM]
O=C(C#Cc1ccc(OC(=O)N2CCC(N3CCCCC3)CC2)cc1)NCc1ccc2c(c1)CN(C1CCC(=O)NC1=O)C2=O (stereo not drawn) [Compound 72] | > 100
O=C(C#Cc1ccccc1OC(=O)N1CCC(N2CCCCC2)CC1)NCc1ccc2c(c1)CN(C1CCC(=O)NC1=O)C2=O (stereo not drawn) [Compound 74] | > 100

same assay, conditions: Homo sapiens, MV4-11; MV-4-11 cells, 72 h, CellTiter-Glo; read-out: IC50 of inhibitory activity of tumor cell proliferation

SMILES | IC50 [nM]
O=C(C#Cc1ccc(CC(F)F)cc1)NCc1ccc2c(c1)CN(C1CCC(=O)NC1=O)C2=O (stereo not drawn) [Compound 2] | < 1
O=C(C#Cc1ccc(F)cc1)NCc1ccc2c(c1)CN(C1CCC(=O)NC1=O)C2=O (stereo not drawn) [Compound 3] | < 1
O=C(C#Cc1ccc(Cl)cc1F)NCc1ccc2c(c1)CN(C1CCC(=O)NC1=O)C2=O (stereo not drawn) [Compound 4] | < 1
O=C(C#Cc1cccs1)NCc1ccc2c(c1)CN(C1CCC(=O)NC1=O)C2=O (stereo not drawn) [Compound 6] | < 1
O=C(C#Cc1ccc(Cl)cc1)NCc1ccc2c(c1)CN(C1CCC(=O)NC1=O)C2=O (stereo not drawn) [Compound 7] | < 1
O=C(C#Cc1ccccc1Cl)NCc1ccc2c(c1)CN(C1CCC(=O)NC1=O)C2=O (stereo not drawn) [Compound 8] | < 1
O=C(C#Cc1c(F)cccc1F)NCc1ccc2c(c1)CN(C1CCC(=O)NC1=O)C2=O (stereo not drawn) [Compound 9] | < 1
O=C(C#Cc1ccc(F)cc1F)NCc1ccc2c(c1)CN(C1CCC(=O)NC1=O)C2=O (stereo not drawn) [Compound 10] | < 1
O=C(C#Cc1ccccc1)NCc1ccc2c(c1)CN(C1CCC(=O)NC1=O)C2=O (stereo not drawn) [Compound 11] | < 1
Cc1cc(F)c(C#CC(=O)NCc2ccc3c(c2)CN(C2CCC(=O)NC2=O)C3=O)c(F)c1 (stereo not drawn) [Compound 13] | < 1
O=C1CCC(N2Cc3cc(CNC(=O)/C(F)=C/c4cccc(F)c4)ccc3C2=O)C(=O)N1 (stereo not drawn) [Compound 14] | > 100
O=C(/C=C/c1ccccc1)NCc1ccc2c(c1)CN(C1CCC(=O)NC1=O)C2=O (stereo not drawn) [Compound 15] | 1 to 10
O=C(C#Cc1cccnc1)NCc1ccc2c(c1)CN(C1CCC(=O)NC1=O)C2=O (stereo not drawn) [Compound 16] | 10 to 100
O=C(C#Cc1cccc(Br)c1)NCc1ccc2c(c1)CN(C1CCC(=O)NC1=O)C2=O (stereo not drawn) [Compound 18] | < 1
O=C(C#Cc1cccc(O)c1)NCc1ccc2c(c1)CN(C1CCC(=O)NC1=O)C2=O (stereo not drawn) [Compound 19] | 1 to 10
C[Si](C)(C)C#CC(=O)NCc1ccc2c(c1)CN(C1CCC(=O)NC1=O)C2=O (stereo not drawn) [Compound 20] | > 100
CC(C)(C)[Si](C)(C)OCC#CC(=O)NCc1ccc2c(c1)CN(C1CCC(=O)NC1=O)C2=O (stereo not drawn) [Compound 21] | < 1
O=C(C#CCO)NCc1ccc2c(c1)CN(C1CCC(=O)NC1=O)C2=O (stereo not drawn) [Compound 22] | > 100
O=C(C#Cc1ccncc1)NCc1ccc2c(c1)CN(C1CCC(=O)NC1=O)C2=O (stereo not drawn) [Compound 23] | > 100
O=C(C#Cc1ccc2c(c1)OCO2)NCc1ccc2c(c1)CN(C1CCC(=O)NC1=O)C2=O (stereo not drawn) [Compound 24] | < 1
CC(C)(C)OC(=O)c1ccc(C#CC(=O)NCc2ccc3c(c2)CN(C2CCC(=O)NC2=O)C3=O)cc1 (stereo not drawn) [Compound 25] | < 1
O=C(C#Cc1ccc(C(=O)O)cc1)NCc1ccc2c(c1)CN(C1CCC(=O)NC1=O)C2=O (stereo not drawn) [Compound 26] | > 100
O=C(C#Cc1ccc(Cl)cn1)NCc1ccc2c(c1)CN(C1CCC(=O)NC1=O)C2=O (stereo not drawn) [Compound 27] | 1 to 10
Cc1ccc(C#CC(=O)NCc2ccc3c(c2)CN(C2CCC(=O)NC2=O)C3=O)nc1 (stereo not drawn) [Compound 28] | 1 to 10

SMILES | IC50 [nM]
CCOC(=O)c1ccc(C#CC(=O)NCc2ccc3c(c2)CN(C2CCC(=O)NC2=O)C3=O)nc1 (stereo not drawn) [Compound 29] | > 100
COc1ccc(C#CC(=O)NCc2ccc3c(c2)CN(C2CCC(=O)NC2=O)C3=O)nc1 (stereo not drawn) [Compound 30] | 1 to 10
Cc1ccc(C#CC(=O)NCc2ccc3c(c2)CN(C2CCC(=O)NC2=O)C3=O)cn1 (stereo not drawn) [Compound 31] | 10 to 100
CC(=O)Oc1ccc(C#CC(=O)NCc2ccc3c(c2)CN(C2CCC(=O)NC2=O)C3=O)cc1 (stereo not drawn) [Compound 32] | 1 to 10
Cn1cnc(C#CC(=O)NCc2ccc3c(c2)CN(C2CCC(=O)NC2=O)C3=O)c1 (stereo not drawn) [Compound 33] | > 100
O=C(C#Cc1ccc(C(F)(F)F)cn1)NCc1ccc2c(c1)CN(C1CCC(=O)NC1=O)C2=O (stereo not drawn) [Compound 34] | 10 to 100
Cn1ccc(C#CC(=O)NCc2ccc3c(c2)CN(C2CCC(=O)NC2=O)C3=O)n1 (stereo not drawn) [Compound 35] | 10 to 100
Cc1ccc(C#CC(=O)NCc2ccc3c(c2)CN(C2CCC(=O)NC2=O)C3=O)s1 (stereo not drawn) [Compound 36] | < 1
O=C(C#Cc1cnccn1)NCc1ccc2c(c1)CN(C1CCC(=O)NC1=O)C2=O (stereo not drawn) [Compound 37] | > 100
O=C(C#Cc1ccc(F)nc1)NCc1ccc2c(c1)CN(C1CCC(=O)NC1=O)C2=O (stereo not drawn) [Compound 38] | 1 to 10
O=C(C#Cc1cnc(Cl)cc1Cl)NCc1ccc2c(c1)CN(C1CCC(=O)NC1=O)C2=O (stereo not drawn) [Compound 39] | 1 to 10
O=C(C#Cc1cccc(Cl)n1)NCc1ccc2c(c1)CN(C1CCC(=O)NC1=O)C2=O (stereo not drawn) [Compound 40] | 1 to 10
O=C(C#Cc1ccc(F)nc1F)NCc1ccc2c(c1)CN(C1CCC(=O)NC1=O)C2=O (stereo not drawn) [Compound 41] | 1 to 10
N#Cc1ccc(C#CC(=O)NCc2ccc3c(c2)CN(C2CCC(=O)NC2=O)C3=O)cn1 (stereo not drawn) [Compound 42] | > 100
N#Cc1ncccc1C#CC(=O)NCc1ccc2c(c1)CN(C1CCC(=O)NC1=O)C2=O (stereo not drawn) [Compound 43] | > 100
Cn1nccc1C#CC(=O)NCc1ccc2c(c1)CN(C1CCC(=O)NC1=O)C2=O (stereo not drawn) [Compound 44] | > 100
O=C(C#Cc1ccc2nccn2c1)NCc1ccc2c(c1)CN(C1CCC(=O)NC1=O)C2=O (stereo not drawn) [Compound 45] | > 100
COc1cccc(C#CC(=O)NCc2ccc3c(c2)CN(C2CCC(=O)NC2=O)C3=O)c1 (stereo not drawn) [Compound 46] | < 1
O=C(C#Cc1ccc([N+](=O)[O-])cc1F)NCc1ccc2c(c1)CN(C1CCC(=O)NC1=O)C2=O (stereo not drawn) [Compound 47] | > 100
Nc1ccc(C#CC(=O)NCc2ccc3c(c2)CN(C2CCC(=O)NC2=O)C3=O)c(F)c1 (stereo not drawn) [Compound 48] | 1 to 10
O=C(C#Cc1ccc(F)cc1[N+](=O)[O-])NCc1ccc2c(c1)CN(C1CCC(=O)NC1=O)C2=O (stereo not drawn) [Compound 49] | 1 to 10
Nc1cc(F)ccc1C#CC(=O)NCc1ccc2c(c1)CN(C1CCC(=O)NC1=O)C2=O (stereo not drawn) [Compound 50] | 1 to 10
Cc1ccc(C#CC(=O)NCc2ccc3c(c2)CN(C2CCC(=O)NC2=O)C3=O)cc1[N+](=O)[O-] (stereo not drawn) [Compound 51] | < 1
Cc1ccc(C#CC(=O)NCc2ccc3c(c2)CN(C2CCC(=O)NC2=O)C3=O)cc1N (stereo not drawn) [Compound 52] | < 1

SMILES | IC50 [nM]
O=C(C#Cc1ccc(F)c([N+](=O)[O-])c1)NCc1ccc2c(c1)CN(C1CCC(=O)NC1=O)C2=O (stereo not drawn) [Compound 53] | 10 to 100
Nc1cc(C#CC(=O)NCc2ccc3c(c2)CN(C2CCC(=O)NC2=O)C3=O)ccc1F (stereo not drawn) [Compound 54] | < 1
O=C(C#Cc1ccc(-c2ccc([N+](=O)[O-])cc2)cc1)NCc1ccc2c(c1)CN(C1CCC(=O)NC1=O)C2=O (stereo not drawn) [Compound 55] | < 1
Nc1ccc(-c2ccc(C#CC(=O)NCc3ccc4c(c3)CN(C3CCC(=O)NC3=O)C4=O)cc2)cc1 (stereo not drawn) [Compound 56] | < 1
O=C(C#Cc1ccc(O)cc1)NCc1ccc2c(c1)CN(C1CCC(=O)NC1=O)C2=O (stereo not drawn) [Compound 57] | 10 to 100
O=C(C#Cc1ccccc1O)NCc1ccc2c(c1)CN(C1CCC(=O)NC1=O)C2=O (stereo not drawn) [Compound 58] | 1 to 10
O=C(C#Cc1ccc(Cl)nc1)NCc1ccc2c(c1)CN(C1CCC(=O)NC1=O)C2=O (stereo not drawn) [Compound 59] | 10 to 100
O=C(C#Cc1ccc(C(F)(F)F)nc1)NCc1ccc2c(c1)CN(C1CCC(=O)NC1=O)C2=O (stereo not drawn) [Compound 60] | 10 to 100
O=C(C#CC1CC1)NCc1ccc2c(c1)CN(C1CCC(=O)NC1=O)C2=O (stereo not drawn) [Compound 61] | > 100
O=C(C#CC1CCCCC1)NCc1ccc2c(c1)CN(C1CCC(=O)NC1=O)C2=O (stereo not drawn) [Compound 62] | < 1
CC(C)(C)OC(=O)N1CCCCC1C#CC(=O)NCc1ccc2c(c1)CN(C1CCC(=O)NC1=O)C2=O (stereo not drawn) [Compound 63] | < 1
O=C(C#CC1CCCCN1)NCc1ccc2c(c1)CN(C1CCC(=O)NC1=O)C2=O (stereo not drawn) [Compound 64] | > 100
O=C(C#Cc1c(O)cccc1Cl)NCc1ccc2c(c1)CN(C1CCC(=O)NC1=O)C2=O (stereo not drawn) [Compound 65] | 1 to 10
O=C(C#Cc1c(Cl)ccnc1Cl)NCc1ccc2c(c1)CN(C1CCC(=O)NC1=O)C2=O (stereo not drawn) [Compound 66] | 1 to 10
Cc1ccnc(Cl)c1C#CC(=O)NCc1ccc2c(c1)CN(C1CCC(=O)NC1=O)C2=O (stereo not drawn) [Compound 67] | 1 to 10
O=C(C#Cc1c(F)ccnc1F)NCc1ccc2c(c1)CN(C1CCC(=O)NC1=O)C2=O (stereo not drawn) [Compound 68] | 10 to 100
CC(C)(C)OC(=O)c1ccccc1C#CC(=O)NCc1ccc2c(c1)CN(C1CCC(=O)NC1=O)C2=O (stereo not drawn) [Compound 69] | < 1
CC(C)(C)OC(=O)c1cccc(C#CC(=O)NCc2ccc3c(c2)CN(C2CCC(=O)NC2=O)C3=O)c1 (stereo not drawn) [Compound 70] | < 1
CC(C)C(=O)Oc1ccccc1C#CC(=O)NCc1ccc2c(c1)CN(C1CCC(=O)NC1=O)C2=O (stereo not drawn) [Compound 73] | 1 to 10
O=C(C#Cc1ccccc1C(=O)O)NCc1ccc2c(c1)CN(C1CCC(=O)NC1=O)C2=O (stereo not drawn) [Compound 75] | > 100
O=C(C#Cc1cccc(C(=O)O)c1)NCc1ccc2c(c1)CN(C1CCC(=O)NC1=O)C2=O (stereo not drawn) [Compound 76] | > 100
CC(C)(C)C(=O)OCOC(=O)c1ccccc1C#CC(=O)NCc1ccc2c(c1)CN(C1CCC(=O)NC1=O)C2=O (stereo not drawn) [Compound 77] | > 100
